Results: publication PMC3827994, “Novel preclinical models of topical PrEP pharmacodynamics provide rationale for combination of drugs with complementary properties” (Retrovirology, 2013)
Where a name gives a salt, the structure may show the parent alone. Each block holds one compound with its values, some of them ahead of it.

Legend:
HIV-1Ba-L [1] = assay: JT-CCR5 cells challenged with HIV-1Ba-L in the presence of drug (p24 ELISA); type: cell-based
Protocol: (§1) JT-CCR5 T cells in 24-well plates (1×10^6 cells/well) were exposed to varying concentrations of drugs diluted in complete medium for 24 h. The cells were then washed with 10 mL of medium, medium containing 10% human seminal plasma (SP), or not washed and then washed cells were resuspended in complete medium prior to transfer to round-bottomed 96-well plates and exposed to 10^3 TCID50 (50% tissue culture infective dose) HIV-1Ba-L for 2 h. Plates were centrifuged at 500 g for 5 min and supernatants were removed prior to each of 3 washing steps with 200 μL of medium. Cells were subsequently cultured in 200 μL complete medium and HIV replication was assessed 6 d post-infection by measuring p24 antigen by ELISA [34].

HIV-1Ba-L [2] = assay: Co-culture model: drug-exposed human ectocervical explants washed, minced, co-cultured with JT-CCR5 cells, HIV-1Ba-L challenge; type: cell-based
Protocol: (§2) Cervical tissue was collected from pre-menopausal women undergoing therapeutic hysterectomies at the Albert Einstein–Montefiore Weiler Hospital (Bronx, NY, USA) under an IRB exempt protocol. Ectocervical tissue was cut into explants of approximately 3×3×3 mm prior to 24 h exposure to panel of unformulated drugs in 24-well plates. Extracellular free drug was removed by immersing explants in phosphate buffered saline (PBS) containing Ca^2+ before mincing explants into fragments smaller than 1 mm, which were resuspended in 200 μL complete medium and co-cultured with JT-CCR5 cells (1×10^5 cells/well) in triplicate wells of round-bottomed 96-well plates. Co-cultures were incubated at 37°C for 72 h to allow released drug to be transferred from the tissue to T cells prior to challenge with HIV-1Ba-L (approximately 10^3 TCID50). The inoculum was removed and co-cultured tissue and cells washed thrice with medium. HIV replication was assessed by measuring p24 levels by ELISA (Figure 2a).

HIV-1Ba-L [3] = assay: Intracellular drug retention: JT-CCR5 cells exposed to drug 24 h, washed with medium or 10% seminal plasma, then HIV-1Ba-L challenge; type: cell-based; conditions: for antiviral activity after washing cells with medium or SP prior to challenge: JT-CCR5, 24 h drug exposure, TDF at >= 0.1 μM; for protection of washed cells at the highest concentrations tested: 10 and 100 μM, cells washed with medium or SP
Protocol: as §1

HIV-1Ba-L [4] = assay: NHP cervical biopsies co-cultured with PHA-activated human PBMC, HIV-1Ba-L challenge (p24 ELISA); type: cell-based
Protocol: as §2
Proximal and distal biopsies were collected and placed in 200 μL of complete medium and shipped to the Herold laboratory at 4°C. Biopsies were minced without washing and co-cultured with activated human PBMC in the presence of culture medium used during transport. Challenge and assessment of HIV replication were performed as described for human cervical explant tissue (Figure 2a).

HIV-1Ba-L [5] = assay: Antiviral activity of macaque CVL in TZM-bl cells challenged with HIV-1Ba-L (luciferase); type: cell-based; conditions: CVL diluted 1:10 and 1:100, Days 7 and 14 post IVR insertion
Protocol: TZM-bl cells were plated at 3x10^4/well and allowed to adhere overnight before exposure to 10^3 TCID50 HIV-1Ba-L in the presence of CVL diluted 1:10 and 1:100 in complete DMEM in triplicate wells. Virus and drugs were left in culture for 48 h at 37°C and then removed by washing once with 200 μl PBS. Cells were lysed in 100 μl luciferase cell culture lysis reagent (Promega) and stored at -80°C until assessed for luciferase activity using luciferase assay buffer (Promega). Alternatively, TZM-bl cells were plated at 5x10^3/well in polyester transwell™ inserts with 1.0 μm pore size (Corning) and exposed basolaterally to CVL diluted 1:20 in complete DMEM overnight before apical challenge with the CCR5-tropic subtype C HIV isolate 97USNG30 (0, 10 and 100 TCID50). Wells with luciferase activity above background average + 2 standard deviations (cells exposed to CVL but no virus) were considered positive. To avoid contamination, frozen CVL was Gamma-irradiated on dry ice (1KGy) prior to use.

TZM-bl cells = assay: In vitro activity of IQP-0528 in TZM-bl cells; type: cell-based; conditions: not shown
[6] = pig, in vivo
Protocol: A 14-day IQP-0528 IVR biodistribution study using pigtail macaque monkeys was performed following protocols approved by the CDC Institutional Animal Care and Use Committee according to the Guide for the Care and Use of Laboratory Animals as previously described [36]. Briefly, animals were anesthetized with ketamine (3-10 mg/kg) prior to all collection procedures. A total of six macaques were used with two animals receiving placebo IVR and four animals receiving IQP-0528 (10% w/w) IVR. A pediatric speculum and forceps were used to insert IVRs in the posterior vagina proximal to the ectocervix on day 0 and left in place for 14 days. Tissue samples were collected with biopsy forceps (Miltex Townsend # 30–1445) near the vaginal introitus (distal to the ring) and the ectocervix (proximal to the ring) and shipped at 4°C to the Herold laboratory overnight. CVL samples were obtained by washing the vaginal vault with 5 mL normal saline; CVL samples were divided into aliquots, shipped and stored at -80°C.
IQP-0528 in biological samples was extracted and analyzed using LC-MS/MS at the Center for Human Toxicology (Utah). The lower limit of quantification (LLOQ) for this assay was 1 ng/mL of matrix. To convert weight/weight concentrations of IQP-0528 (nanograms IQP-0528 per milligram of vaginal fluid or tissue) to molarity (μM), vaginal fluid and tissue densities of 1.0 g/mL were assumed.

HIV = system: HIV; set-up: method as in PMID 16251317; conditions: drug present throughout the experiment ref 25; cited from earlier work
HIV-1Ba-L [7] = assay: Parallel antiviral experiments with MVC in human PBMCs; type: cell-based; conditions: PHA-activated PBMCs; data not shown
[8] = Human immunodeficiency virus 1, 144 h; challenge in the presence of drug; means ± SEM; read-out: JT-CCR5 Infection IC50
[9] = Human immunodeficiency virus 1, 144 h; challenge in the presence of drug; means ± SEM; read-out: JT-CCR5 Infection IC90
[10] = Human immunodeficiency virus 1; drug concentration during 24 h explant exposure; means ± SEM; read-out: Co-culture JT-CCR5 & explant tissue IC50
[11] = Human immunodeficiency virus 1; drug concentration during 24 h explant exposure; means ± SEM; read-out: Co-culture JT-CCR5 & explant tissue IC90
[12] = explant treated ex vivo, washed, co-cultured with JT-CCR5
[13] = macaques with 10% w/w IQP-0528 IVR, co-culture with human PBMC

IC50 (HIV-1Ba-L [1]; [8]): 40 ± 10 nM
IC90 (HIV-1Ba-L [1]; [9]): 130 ± 20 nM
Compound: CC(C)OC(=O)OCOP(=O)(CO[C@H](C)Cn1cnc2c(N)ncnc21)OCOC(=O)OC(C)C [TDF, Tenofovir disoproxil fumarate]
IC50 (HIV-1Ba-L [2]; [10]): > 10000 nM
IC90 (HIV-1Ba-L [2]; [11]): > 10000 nM
protection of co-cultured T cells by pretreated explant tissue (HIV-1Ba-L [2]; [12]): not protected from viral infection
antiviral activity after washing cells with medium or SP prior to challenge (HIV-1Ba-L [3]): retained its antiviral activity

Compound: Cc1cc(C)cc(C(=O)c2c(C(C)C)c(=O)[nH]c(=O)n2CC2CC2)c1 [IQP-0528]
IC50 (HIV-1Ba-L [1]; challenge in the presence of drug; means ± SEM; read-out: JT-CCR5 Infection IC50): 190 ± 70 nM
IC90 (HIV-1Ba-L [1]; challenge in the presence of drug; means ± SEM; read-out: JT-CCR5 Infection IC90): 430 ± 160 nM
viral inhibition, distal biopsies, day 7 (HIV-1Ba-L [4]; [13]): 42.3%
viral inhibition, distal biopsies, day 14 (HIV-1Ba-L [4]; [13]): 59.2%
viral inhibition, proximal biopsies, day 7 (HIV-1Ba-L [4]; [13]): 53.0%
viral inhibition, proximal biopsies, day 14 (HIV-1Ba-L [4]; [13]): 71.7%
viral inhibition, biopsies of ring-treated macaques (range) (HIV-1Ba-L [4]; proximal and distal biopsies, days 7 and 14): 42-72%
protection of TZM-bl cells challenged in the presence of CVL (HIV-1Ba-L [5]): significantly protected from infection
in vitro IC90 in TZM-bl cells (TZM-bl cells): 2.7 ng/mL
IC50 (HIV-1Ba-L [2]; drug concentration during 24 h explant exposure; means ± SEM; read-out: Co-culture JT-CCR5 & explant tissue IC50): 2900 ± 700 nM
IC90 (HIV-1Ba-L [2]; drug concentration during 24 h explant exposure; means ± SEM; read-out: Co-culture JT-CCR5 & explant tissue IC90): 10100 ± 700 nM
protection of co-cultured T cells by pretreated explant tissue (HIV-1Ba-L [2]; [12]): significant protection
protection in co-culture, fresh tissue vs tissue stored at -80°C (HIV-1Ba-L [2]; tissue fresh or frozen 24 h or 7 days after drug treatment): protective under all of these conditions
protection of washed cells at the highest concentrations tested (HIV-1Ba-L [3]): neither IQP-0528 or MVC completely protected the cells from infection
IQP-0528 concentration in CVL, D7, Mean ± SEM [6]: 1360 ± 249 µg/mL
IQP-0528 concentration in CVL, D14, Mean ± SEM [6]: 940 ± 250 µg/mL
IQP-0528 concentration in cervical tissue, Distal D7, Mean ± SEM [6]: 0.85 ± 0.23 ng/mg of tissue
IQP-0528 concentration in cervical tissue, Distal D14, Mean ± SEM [6]: 14.65 ± 6.35 ng/mg of tissue
IQP-0528 concentration in cervical tissue, Proximal D7, Mean ± SEM [6]: 3.36 ± 1.36 ng/mg of tissue
IQP-0528 concentration in cervical tissue, Proximal D14, Mean ± SEM [6]: 28.08 ± 5.39 ng/mg of tissue

Compound: Maraviroc [MVC]
antiviral activity (HIV-1Ba-L [1]; cells washed 2 h after viral inoculation, drug not re-added): only active in the low μM range
IC50 (HIV-1Ba-L [1]; read-out: JT-CCR5 Infection IC50; challenge in the presence of drug; means ± SEM): 1980 ± 850 nM
IC90 (HIV-1Ba-L [1]; read-out: JT-CCR5 Infection IC90; challenge in the presence of drug; means ± SEM): 54500 ± 13800 nM
protection of co-cultured T cells by pretreated explant tissue (HIV-1Ba-L [2]; [12]): failed to protect co-cultured T cells
IC50 (HIV-1Ba-L [2]; read-out: Co-culture JT-CCR5 & explant tissue IC50; drug concentration during 24 h explant exposure; means ± SEM): > 100000 nM
IC90 (HIV-1Ba-L [2]; read-out: Co-culture JT-CCR5 & explant tissue IC90; drug concentration during 24 h explant exposure; means ± SEM): > 100000 nM
antiviral activity (HIV): low nanomolar range
antiviral activity in human PBMCs compared to JT-CCR5 cells (HIV-1Ba-L [7]): no difference in the antiviral activity
protection of washed cells at the highest concentrations tested (HIV-1Ba-L [3]): neither IQP-0528 or MVC completely protected the cells from infection
antiviral activity after washing cells with medium or SP prior to challenge (HIV-1Ba-L [3]): significantly reduced

IC50 (HIV-1Ba-L [1]; [8]): 10 ± 10 nM
IC90 (HIV-1Ba-L [1]; [9]): 30 ± 20 nM
Compound: Cc1cc(C)c(Nc2ccnc(Nc3ccc(C#N)cc3)n2)c(C)c1 [DPV, Dapivirine]
IC50 (HIV-1Ba-L [2]; [10]): 400 ± 200 nM
IC90 (HIV-1Ba-L [2]; [11]): 1100 ± 300 nM
protection of co-cultured T cells by pretreated explant tissue (HIV-1Ba-L [2]; [12]): significant protection
HIV inhibition (HIV-1Ba-L [3]; 1 μM, cells washed with SP prior to HIV challenge): failed to inhibit HIV infection
inhibition at 1 µM (HIV-1Ba-L [3]; Human immunodeficiency virus 1, 1 μM, cells washed with medium alone, mean ± SEM, read-out: protection (HIV inhibition)): 73.9 ± 13.8%
